From patent US20090327175A1, “PHARMACOKINETIC MODELING OF MYCOPHENOLIC ACID” (priority 2006, published 2009)
Read-outs that look alike come from different tables or passages of the source.

Columns and labels:
[1] = immediately post-transplantation; cited from earlier work
[2] = 12 h plasma concentration/time profiles from six clinical studies of transplant patients receiving enteric coated mycophenolate salt (Myfortic); assay type: in vivo, human; details: for AUC(0-t): human, plasma, oral, enteric coated mycophenolate salt (Myfortic), read-out: MPA AUC0-12, mean and SD, measured
Experimental: 334, 12 h plasma concentration/time profiles (217 for de novo and 117 for stable patients) are available from six clinical studies of transplant patients receiving enteric coated composition containing mycophenolate salt (Myfortic®) as part of their immunosuppressive drug regimen. Using 20 randomly selected profiles, population PK models (two-compartment for stable patients and a one-compartment for de novo patients) are developed using a Bayesian approach (i.e. approach to statistics in which estimates are based on a synthesis of a prior distribution and current sample data) to estimate the model parameters. The remaining profiles are used to test and validate the models.

share of de novo patients below lower end of target range for MPA AUC0-12 (30 mg/L·h) ([2]; fixed dose of 720 mg bid, during the two weeks after transplantation): 50%
AUC(0-t) ([2]; 720 mg bid, de novo patients transplanted within the previous two weeks): 32200 ± 17500 ng·h/mL
AUC(0-t) ([2]; stable patients): 65100 ± 26000 ng·h/mL
SMILES: COc1c(C)c2c(c(O)c1C/C=C(\C)CCC(=O)O)C(=O)OC2 [MPA, mycophenolic acid]
optimal target MPA AUC0-12 suggested by previous controlled studies [1]: ~45000 ng·h/mL
